Results taken from ChEMBL document CHEMBL1201862, “PubChem BioAssay data set” (2004).
The source made the active and inactive calls.

Experiments:
Hexokinase HKDC1 = molecular target: T1, Hexokinase HKDC1 (Homo sapiens, UniProt Q2TB90); experiment: activation of HKDC1 glucose phosphorylation – biochemical, W721R variant, dose response (AID 504730); format: functional
T1 sequence (Q2TB90 whole entry): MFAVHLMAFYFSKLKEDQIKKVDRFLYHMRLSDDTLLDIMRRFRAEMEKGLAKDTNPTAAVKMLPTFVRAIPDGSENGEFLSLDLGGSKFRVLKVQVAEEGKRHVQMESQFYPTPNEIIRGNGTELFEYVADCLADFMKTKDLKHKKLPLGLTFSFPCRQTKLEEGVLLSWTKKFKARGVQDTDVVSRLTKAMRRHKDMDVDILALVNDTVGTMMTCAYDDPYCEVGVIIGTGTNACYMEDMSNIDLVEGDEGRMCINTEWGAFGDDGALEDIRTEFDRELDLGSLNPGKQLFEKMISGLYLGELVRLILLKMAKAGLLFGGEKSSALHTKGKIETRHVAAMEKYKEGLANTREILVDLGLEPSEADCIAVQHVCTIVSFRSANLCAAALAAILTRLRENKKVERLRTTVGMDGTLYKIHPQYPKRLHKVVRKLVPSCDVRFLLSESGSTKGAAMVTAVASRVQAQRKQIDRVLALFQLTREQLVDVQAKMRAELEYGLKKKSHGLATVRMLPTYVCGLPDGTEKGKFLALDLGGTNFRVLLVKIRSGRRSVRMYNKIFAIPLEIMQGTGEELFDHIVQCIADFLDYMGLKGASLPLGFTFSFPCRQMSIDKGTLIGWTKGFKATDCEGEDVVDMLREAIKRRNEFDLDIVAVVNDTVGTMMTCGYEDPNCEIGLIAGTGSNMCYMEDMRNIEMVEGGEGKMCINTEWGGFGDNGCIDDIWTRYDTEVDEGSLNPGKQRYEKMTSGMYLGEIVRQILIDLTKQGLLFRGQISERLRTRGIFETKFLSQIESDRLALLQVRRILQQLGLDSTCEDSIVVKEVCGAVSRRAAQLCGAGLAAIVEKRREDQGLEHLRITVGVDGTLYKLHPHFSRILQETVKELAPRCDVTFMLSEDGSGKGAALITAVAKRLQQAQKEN

Hexokinase-1 = Hexokinase-1 (Homo sapiens, UniProt P19367); experiment: HK1 enzyme activation by HKDC1 hits – biochemical, selectivity assay for HKDC1 activator project, dose response (AID 504762); format: functional
[1] = molecular target: T2, Runt-related transcription factor 1/Core-binding factor subunit beta (Homo sapiens, UniProt Q01196+Q13951); experiment: disruptors of Runt domain/CBFb-SMMHC interaction – biochemical, FRET, Cerulean-Runt, Venus-CBFb-SMMHC, uHTS, […] (AID 1434); format: protein assay
[2] = molecular target: T2, Runt-related transcription factor 1/Core-binding factor subunit beta; experiment: Runt domain/CBFb-SMMHC interaction disruptors – biochemical, TR-FRET (AID 1438); format: protein assay
T-cell = experiment: loss of vesicle association with mouse CD8+ T cells – mouse 2C CD8+ T cells, flow cytometry, dose response (AID 485284); format: functional
[3] = molecular target: T3, Sphingosine 1-phosphate receptor 4 (Homo sapiens, UniProt O95977); experiment: Late-stage fluorescence dose response cell-based assay to identify agonists of the Sphingosine 1-Phosphate Receptor 4 (S1P4): purchased compounds EC50. [Related pubchem assays (depositor defined):AID1509, AID1523, AID1563, AID1686, AID1701, AID1801]; format: functional
T3 sequence (O95977 whole entry): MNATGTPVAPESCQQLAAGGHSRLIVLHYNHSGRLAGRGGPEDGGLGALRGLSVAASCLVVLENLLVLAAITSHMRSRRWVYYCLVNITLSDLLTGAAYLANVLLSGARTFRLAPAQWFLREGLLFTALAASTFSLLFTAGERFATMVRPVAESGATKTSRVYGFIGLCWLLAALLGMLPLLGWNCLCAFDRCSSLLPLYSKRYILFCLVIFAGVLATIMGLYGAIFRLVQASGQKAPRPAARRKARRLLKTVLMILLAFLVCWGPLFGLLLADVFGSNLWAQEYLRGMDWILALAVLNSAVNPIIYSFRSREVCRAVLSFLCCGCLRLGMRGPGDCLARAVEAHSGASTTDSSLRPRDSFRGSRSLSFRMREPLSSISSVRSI

Protein RecA = molecular target: T4, Protein RecA (Mycobacterium tuberculosis, UniProt P9WHJ3); experiment: Fluorescence Cell-Free Homogeneous Dose Retest to Identify Inhibitors of RecA-Intein Splicing Activity. [Related pubchem assays (depositor defined):AID2097, AID2223, AID489010, AID492950]; format: functional
T4 sequence (P9WHJ3 whole entry): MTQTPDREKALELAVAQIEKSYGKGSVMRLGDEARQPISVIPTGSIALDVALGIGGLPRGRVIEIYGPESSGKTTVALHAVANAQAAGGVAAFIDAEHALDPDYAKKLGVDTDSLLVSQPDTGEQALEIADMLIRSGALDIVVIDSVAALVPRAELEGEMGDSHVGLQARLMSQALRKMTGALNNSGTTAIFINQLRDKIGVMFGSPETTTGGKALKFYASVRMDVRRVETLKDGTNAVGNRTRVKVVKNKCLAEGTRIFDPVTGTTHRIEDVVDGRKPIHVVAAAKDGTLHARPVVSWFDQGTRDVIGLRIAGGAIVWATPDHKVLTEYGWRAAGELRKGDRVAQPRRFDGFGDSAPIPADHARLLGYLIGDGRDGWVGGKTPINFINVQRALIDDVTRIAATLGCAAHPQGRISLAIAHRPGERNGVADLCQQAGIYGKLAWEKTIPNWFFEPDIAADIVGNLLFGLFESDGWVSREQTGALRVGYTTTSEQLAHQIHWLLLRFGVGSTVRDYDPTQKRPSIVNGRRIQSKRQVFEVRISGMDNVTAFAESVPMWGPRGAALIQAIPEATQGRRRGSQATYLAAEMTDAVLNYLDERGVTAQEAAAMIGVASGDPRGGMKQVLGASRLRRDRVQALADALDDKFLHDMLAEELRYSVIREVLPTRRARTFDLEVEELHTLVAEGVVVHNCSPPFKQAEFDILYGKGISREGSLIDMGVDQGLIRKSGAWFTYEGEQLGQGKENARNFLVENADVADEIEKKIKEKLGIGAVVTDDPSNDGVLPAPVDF

[4] = Vero E6 cell cytotoxicity, dose response, cytotoxicity control for non-replicating M. tuberculosis project, secondary assay (AID 492998); format: functional, VeroE6; settings: Vero C1008
[5] = molecular target: T5, Heat shock factor protein 1 (Mus musculus, UniProt P38532); experiment: enhancement of HSF1-driven luciferase signal – cell-based, NIH3T3, luminescence, dose retest, confirmation (AID 435004); format: functional;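 note: stress induced by proteasome inhibitor MG132 added 30 min after compound; luciferase reporter driven by HSF1 response element in NIH3T3 cells; actives raise luminescence as potentiators of the MG132 stress response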
T5 sequence (P38532 whole entry): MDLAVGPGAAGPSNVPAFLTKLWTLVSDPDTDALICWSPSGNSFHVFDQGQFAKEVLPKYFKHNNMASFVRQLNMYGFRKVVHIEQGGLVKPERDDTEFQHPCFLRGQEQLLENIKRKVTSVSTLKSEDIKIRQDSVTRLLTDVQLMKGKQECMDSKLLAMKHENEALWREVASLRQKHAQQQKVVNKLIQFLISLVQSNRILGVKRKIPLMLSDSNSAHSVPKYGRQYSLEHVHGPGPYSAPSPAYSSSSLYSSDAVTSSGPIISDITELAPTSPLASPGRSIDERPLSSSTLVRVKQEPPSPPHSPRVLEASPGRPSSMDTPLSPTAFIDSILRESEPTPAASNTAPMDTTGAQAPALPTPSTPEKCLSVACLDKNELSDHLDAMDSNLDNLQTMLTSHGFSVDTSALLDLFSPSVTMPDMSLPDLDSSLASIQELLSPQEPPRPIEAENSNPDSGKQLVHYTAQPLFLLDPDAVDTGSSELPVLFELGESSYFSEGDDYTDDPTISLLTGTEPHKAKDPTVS

[6] = microbe, parasite or virus in culture; format: functional; settings: Mycobacterium tuberculosis
[7] = molecular target: T6, Microphthalmia-associated transcription factor (Homo sapiens, UniProt O75030); experiment: reducers of TRPM1 reporter luminescence, concentration series – cell-based, SK-MEL-5, cherry-picked, set 3, MITF inhibitor project, dose response (AID 493073); format: functional;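 note: SK-MEL-5 melanoma cells with luciferase driven by the MITF target TRPM1 promoter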
T6 sequence (O75030 whole entry): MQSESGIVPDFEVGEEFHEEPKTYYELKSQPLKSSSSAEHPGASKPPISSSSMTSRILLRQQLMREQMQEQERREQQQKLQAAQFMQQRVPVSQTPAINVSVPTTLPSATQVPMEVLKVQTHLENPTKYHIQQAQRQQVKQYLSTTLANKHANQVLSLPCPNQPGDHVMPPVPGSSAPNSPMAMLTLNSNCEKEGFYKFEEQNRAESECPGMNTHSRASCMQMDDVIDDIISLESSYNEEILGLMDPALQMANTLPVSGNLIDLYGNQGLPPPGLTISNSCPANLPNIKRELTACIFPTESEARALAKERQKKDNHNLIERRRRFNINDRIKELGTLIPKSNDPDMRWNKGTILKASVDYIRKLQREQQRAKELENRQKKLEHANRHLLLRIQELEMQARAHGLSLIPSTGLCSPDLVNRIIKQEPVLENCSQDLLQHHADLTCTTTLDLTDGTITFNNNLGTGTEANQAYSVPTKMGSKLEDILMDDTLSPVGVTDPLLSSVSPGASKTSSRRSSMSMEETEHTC

[8] = THP-1 cell cytotoxicity, dose response, cytotoxicity control for non-replicating M. tuberculosis project (AID 489025); format: functional
cells = format: functional
[9] = molecular target: T7, Replicative DNA helicase DnaB (Mycobacterium tuberculosis, UniProt P9WMR3); experiment: DnaB intein splicing inhibitors, dose response, biochemical, cell-free fluorescence (AID 449749); format: functional
T7 sequence (P9WMR3 whole entry): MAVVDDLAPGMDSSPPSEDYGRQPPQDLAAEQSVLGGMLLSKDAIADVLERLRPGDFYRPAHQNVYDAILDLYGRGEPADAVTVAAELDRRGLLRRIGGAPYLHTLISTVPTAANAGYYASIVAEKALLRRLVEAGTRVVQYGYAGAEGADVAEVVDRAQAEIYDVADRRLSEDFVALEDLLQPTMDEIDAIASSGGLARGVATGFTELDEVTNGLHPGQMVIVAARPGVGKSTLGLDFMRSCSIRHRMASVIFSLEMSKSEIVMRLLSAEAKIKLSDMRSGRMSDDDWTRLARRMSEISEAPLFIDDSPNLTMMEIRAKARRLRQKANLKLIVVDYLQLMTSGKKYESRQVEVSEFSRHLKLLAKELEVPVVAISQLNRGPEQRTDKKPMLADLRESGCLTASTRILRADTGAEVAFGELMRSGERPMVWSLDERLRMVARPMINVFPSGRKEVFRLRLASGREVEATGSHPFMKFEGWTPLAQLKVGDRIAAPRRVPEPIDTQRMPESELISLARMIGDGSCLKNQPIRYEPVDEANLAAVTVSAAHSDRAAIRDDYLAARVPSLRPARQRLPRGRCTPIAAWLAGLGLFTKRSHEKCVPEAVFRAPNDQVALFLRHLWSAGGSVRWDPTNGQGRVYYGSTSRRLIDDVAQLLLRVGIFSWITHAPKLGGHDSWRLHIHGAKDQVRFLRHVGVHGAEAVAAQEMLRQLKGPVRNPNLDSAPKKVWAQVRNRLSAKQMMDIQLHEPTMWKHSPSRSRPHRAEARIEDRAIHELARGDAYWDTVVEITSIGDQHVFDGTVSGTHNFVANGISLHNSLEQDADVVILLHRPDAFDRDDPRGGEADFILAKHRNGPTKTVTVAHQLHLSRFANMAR

T2 sequence (Q01196 whole entry, the tested form may be a part): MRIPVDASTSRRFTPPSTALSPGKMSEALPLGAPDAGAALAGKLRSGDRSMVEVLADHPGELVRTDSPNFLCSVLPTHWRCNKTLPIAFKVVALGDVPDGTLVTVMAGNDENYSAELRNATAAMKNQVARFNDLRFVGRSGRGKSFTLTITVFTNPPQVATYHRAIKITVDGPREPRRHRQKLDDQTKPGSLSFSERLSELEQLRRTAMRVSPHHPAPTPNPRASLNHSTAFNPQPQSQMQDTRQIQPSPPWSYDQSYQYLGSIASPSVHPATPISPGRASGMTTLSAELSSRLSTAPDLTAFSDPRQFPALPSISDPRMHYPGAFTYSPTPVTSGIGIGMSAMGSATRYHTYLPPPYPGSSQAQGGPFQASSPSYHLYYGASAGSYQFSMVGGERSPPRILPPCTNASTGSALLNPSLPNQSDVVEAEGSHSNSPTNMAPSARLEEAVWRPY
T2 sequence (Q13951 whole entry, the tested form may be a part): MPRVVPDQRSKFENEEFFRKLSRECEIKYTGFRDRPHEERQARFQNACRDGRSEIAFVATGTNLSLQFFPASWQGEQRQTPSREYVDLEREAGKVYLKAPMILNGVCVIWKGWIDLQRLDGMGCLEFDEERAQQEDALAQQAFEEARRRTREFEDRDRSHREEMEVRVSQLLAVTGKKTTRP
Sequence of Hexokinase-1 (P19367 whole entry, the tested form may be a part): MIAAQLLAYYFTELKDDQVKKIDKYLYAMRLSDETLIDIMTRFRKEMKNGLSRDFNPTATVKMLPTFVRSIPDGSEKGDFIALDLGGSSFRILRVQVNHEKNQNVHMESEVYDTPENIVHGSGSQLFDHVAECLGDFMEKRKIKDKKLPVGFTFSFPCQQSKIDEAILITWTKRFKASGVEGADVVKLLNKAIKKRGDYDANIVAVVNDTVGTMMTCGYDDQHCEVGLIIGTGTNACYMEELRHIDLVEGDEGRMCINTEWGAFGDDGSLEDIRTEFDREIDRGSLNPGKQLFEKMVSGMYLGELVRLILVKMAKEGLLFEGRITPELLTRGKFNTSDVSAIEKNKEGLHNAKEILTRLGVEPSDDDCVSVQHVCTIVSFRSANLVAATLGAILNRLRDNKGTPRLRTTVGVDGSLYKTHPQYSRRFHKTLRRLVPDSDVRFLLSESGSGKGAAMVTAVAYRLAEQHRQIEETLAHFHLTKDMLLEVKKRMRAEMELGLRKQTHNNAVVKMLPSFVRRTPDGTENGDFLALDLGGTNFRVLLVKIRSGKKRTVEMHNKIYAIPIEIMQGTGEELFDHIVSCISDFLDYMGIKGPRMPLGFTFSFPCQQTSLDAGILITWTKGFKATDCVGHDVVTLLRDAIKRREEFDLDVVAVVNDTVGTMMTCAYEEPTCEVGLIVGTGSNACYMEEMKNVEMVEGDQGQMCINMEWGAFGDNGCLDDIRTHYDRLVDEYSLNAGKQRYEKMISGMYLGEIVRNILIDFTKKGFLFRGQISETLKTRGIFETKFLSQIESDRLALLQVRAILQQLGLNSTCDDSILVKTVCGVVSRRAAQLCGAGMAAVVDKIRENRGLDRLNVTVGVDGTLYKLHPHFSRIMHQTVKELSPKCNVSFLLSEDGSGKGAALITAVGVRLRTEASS

With `COc1ccccc1C1=NN=C(Nc2cccc(S(=O)(=O)N(C)C)c2)SC1` the EC50 (Hexokinase HKDC1) was 19.5 µM (active) and the EC50 (Hexokinase-1) was 20.1 µM (inactive).

In the case of `CCOC(=O)N1CCC(NC(=O)c2ccc3c(c2)N(C)CCS3)CC1`, the IC50 [1] is reported as > 100 µM (inactive) and the IC50 [2] is reported as > 100 µM (inactive).

With `Cc1ccc(S(=O)(=O)N2CCC(NC(=O)c3ccccc3)CC2)cc1` the EC50 (T-cell) was 7.83 µM (active).

In the case of `Cc1nn(Cc2ccccc2)c(Cl)c1C(=O)OC(C)C(=O)NCc1ccccc1` (centres undefined), the EC50 [3] is reported as > 50 µM (inactive).

In the case of `COC(=O)c1ccc2c(c1O)C(=O)c1ccccc1C2=O`, the EC50 (Protein RecA) is reported as 925 nM (active), the CC50 [4] is reported as > 20 µM (active) and the EC50 [5] is reported as 3.73 µM (active). For the same compound, the CC50 [6] was 24.2 µM (active), the AC50 [7] was 1.61 µM (active) and the CC50 [8] was > 40 µM (active). The IC50 (cells) was 4.52 µM (active) and the AC50 [9] was 51.4 µM (active).
